For 23 molecules, IC50 results are on record in patent publication US11834453B2, “Substituted pyrimido[5,4-d]pyrimidines as HER2 inhibitors” (Array BioPharma Inc., priority 2020, dated 2023).

The structures appear in SMILES notation. Like-named read-outs stand apart in the source and are kept apart here.

Test [1] concerns the target ErbB2 insYVMA (HER2-YVMA, SEQ ID NO: 2) (Homo sapiens, UniProt P04626, INS775YVMA/P1170A). The experiment in a line: biochemical. Particulars: ErbB2 insYVMA enzyme assay.
Test [2] concerns the target ErbB2 WT (Homo sapiens (Human), UniProt P04626). In words: ErbB enzyme assay (CisBio HTRF KinEASE-TK), Assay 2. In kind it is biochemical. As to the method:
Compound potencies were determined using CisBio's HTRF Kinease-TK assay technology. The kinases were incubated with 250 nM TK-substrate biotin (CisBio, part of cat #62TK0PEC) at 1 mM ATP along with test compounds in a buffer consisting of 25 mM HEPES, pH 7.4, 10 mM MgCl2, 0.01% Triton X-100, and 2% DMSO in a volume of 8 μL. […] After 30-minute incubation at 22° C., the reaction was quenched by adding 8 μL of quench solution containing 62.5 nM Sa-XL665 and 0.25× TK-Ab-Cryptate in HTRF detection buffer (all from CisBio, part of cat #62TK0PEC). After a 1-hour incubation at 22° C., the extent of reaction was determined using a PerkinElmer EnVision multimode plate reader via HTRF dual wavelength detection, and the percent of control (POC) was calculated using a ratiometric emission factor. One hundred POC was determined using DMSO only samples (no compound present), and 0 POC was determined using pre-quenched control reactions.
(§1) Enzyme lots and concentration used are in Table 2.

Test [3] concerns the target EGFR (Homo sapiens (Human), UniProt P00533). In words: ErbB enzyme assay (CisBio HTRF KinEASE-TK), Assay 3. In kind it is biochemical. As to the method:
Compound potencies were determined using CisBio's HTRF Kinease-TK assay technology. The kinases were incubated with 250 nM TK-substrate biotin (CisBio, part of cat #62TK0PEC) at 1 mM ATP along with test compounds in a buffer consisting of 25 mM HEPES, pH 7.4, 10 mM MgCl2, 0.01% Triton X-100, and 2% DMSO in a volume of 8 μL. Compounds were prepared as a three-fold serial dilution in DMSO and added to the assay to give the appropriate final concentration. After 30-minute incubation at 22° C., the reaction was quenched by adding 8 μL of quench solution containing 62.5 nM Sa-XL665 and 0.25× TK-Ab-Cryptate in HTRF detection buffer (all from CisBio, part of cat #62TK0PEC). After a 1-hour incubation at 22° C., the extent of reaction was determined using a PerkinElmer EnVision multimode plate reader via HTRF dual wavelength detection, and the percent of control (POC) was calculated using a ratiometric emission factor. One hundred POC was determined using DMSO only samples (no compound present), and 0 POC was determined using pre-quenched control reactions. A 4-parameter logistic curve was fit to the POC values as a function of the concentration of compound, and the IC50 value was the point where the best-fit curve crossed 50 POC.
as §1

In test [4] the target is EGFR wild type (EGFR WT) (Homo sapiens (Human), UniProt P00533). The experiment in a line: Cellular phosphorylation assay, EGF-stimulated EGFR phosphorylation in engineered NIH 3T3 cells, Phospho-EGFR DuoSet IC ELISA, Assay 5. In kind it is cell-based. As to the method: NIH 3T3 cells were engineered to express EGFR wild type (EGFR WT; Assay 5, no footnote) with constructs obtained from GenScript and grown in DMEM supplemented with 10% fetal bovine serum and 15 μg/ml blasticidin. Cells were plated in 96-well plates at 20,000 cells/well and allowed to attach overnight at 37° C./5% CO2. Serially diluted compounds were added to the plates for 1 hour at 37° C./5% CO2. EGFR WT cells were stimulated with 100 ng/ml rEGF for an additional 10 minutes at 37° C./5% CO2. After compound incubation, medium was removed from the cells, which were then lysed in 100 μL/well lysis buffer according to the manufacturer's protocol (R&D Systems, DYC1095, Human Phospho-EGFR DuoSet IC ELISA). Same protocol was followed to determine the total levels of phospho-EGFR by measuring the optical density of each well using a VersaMax microplate reader. Curves were then generated and IC50 values calculated.

Test [5] has as its target ErbB2 with Exon 20 YVMA insertion (HER2-YVMA) (Homo sapiens (Human), UniProt P04626, INS775YVMA). The experiment in a line: Cellular phosphorylation assay, constitutive ErbB2 phosphorylation (Y1196) in engineered NIH 3T3 cells, Assay 4. In kind it is cell-based. The method, then: Serially diluted compounds were added to the plates for 1 hour at 37° C./5% CO2. EGFR WT cells were stimulated with 100 ng/ml rEGF for an additional 10 minutes at 37° C./5% CO2. After compound incubation, medium was removed from the cells, which were then fixed in 3.7% formaldehyde in PBS at room temperature for 20 minutes. Following a wash with PBS, cells were permeabilized with 100% methanol at room temperature for 10 minutes. Cells were then washed with PBS/0.05% Tween-20 and blocked with Odyssey blocking buffer (LI-COR Biosciences) for at least 1 hour at room temperature. Antibodies to phosphorylated ErbB2 (Y1196, Cell Signaling #6942) or phosphorylated EGFR (Y1068, Cell Signaling #3777) and GAPDH (Millipore #MAB374) were added to the cells in blocking buffer containing 0.05% azide and incubated overnight at 4° C. After washing with PBS/0.05° i° Tween-20, the cells were incubated with fluorescently labeled secondary anti-rabbit antibody (LiCOR, IRDye 800CW #926-32211) and anti-mouse antibody (Molecular Probes, Alexa Fluor 680 #A21058) for 1 hour at room temperature in the dark. Cells were then washed and analyzed for fluorescence at both wavelengths using the Odyssey Infrared Imaging System (LI-COR Biosciences). Phosphorylated ErbB2 and EGFR signal was normalized to GAPDH signal to generate curves and calculate IC50 values.

Chain of EGFR wild type (EGFR WT) (P00533 25-1210): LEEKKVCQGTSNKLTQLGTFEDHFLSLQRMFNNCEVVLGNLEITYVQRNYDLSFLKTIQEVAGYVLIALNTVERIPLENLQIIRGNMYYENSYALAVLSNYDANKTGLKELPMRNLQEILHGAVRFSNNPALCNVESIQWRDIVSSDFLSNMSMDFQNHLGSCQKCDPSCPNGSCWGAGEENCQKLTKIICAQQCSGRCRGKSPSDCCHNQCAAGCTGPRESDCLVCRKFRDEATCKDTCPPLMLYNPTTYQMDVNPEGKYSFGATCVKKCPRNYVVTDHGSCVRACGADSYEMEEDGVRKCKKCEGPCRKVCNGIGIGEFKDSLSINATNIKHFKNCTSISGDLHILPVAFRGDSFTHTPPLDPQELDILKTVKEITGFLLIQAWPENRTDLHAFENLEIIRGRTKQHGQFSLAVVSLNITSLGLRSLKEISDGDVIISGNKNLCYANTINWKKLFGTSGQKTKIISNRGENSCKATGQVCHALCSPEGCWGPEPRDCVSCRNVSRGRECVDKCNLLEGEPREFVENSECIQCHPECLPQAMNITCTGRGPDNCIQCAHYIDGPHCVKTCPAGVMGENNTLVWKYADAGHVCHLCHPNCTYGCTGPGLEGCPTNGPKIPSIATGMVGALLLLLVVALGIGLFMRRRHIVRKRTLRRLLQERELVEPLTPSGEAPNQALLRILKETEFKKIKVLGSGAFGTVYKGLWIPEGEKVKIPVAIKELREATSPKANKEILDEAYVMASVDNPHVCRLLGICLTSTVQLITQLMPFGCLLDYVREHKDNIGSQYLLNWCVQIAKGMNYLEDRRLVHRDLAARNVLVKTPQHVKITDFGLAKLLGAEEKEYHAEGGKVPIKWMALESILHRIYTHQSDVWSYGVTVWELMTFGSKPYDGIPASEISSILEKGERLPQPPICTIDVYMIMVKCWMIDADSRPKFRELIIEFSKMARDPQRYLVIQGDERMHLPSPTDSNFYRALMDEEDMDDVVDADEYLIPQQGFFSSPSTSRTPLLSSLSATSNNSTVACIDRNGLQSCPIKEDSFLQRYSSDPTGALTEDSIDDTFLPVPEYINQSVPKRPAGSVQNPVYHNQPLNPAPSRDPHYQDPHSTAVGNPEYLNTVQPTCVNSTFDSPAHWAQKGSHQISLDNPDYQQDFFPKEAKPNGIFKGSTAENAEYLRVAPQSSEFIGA
Chain of EGFR (P00533 25-1210): as above
Chain of ErbB2 WT (P04626 23-1255): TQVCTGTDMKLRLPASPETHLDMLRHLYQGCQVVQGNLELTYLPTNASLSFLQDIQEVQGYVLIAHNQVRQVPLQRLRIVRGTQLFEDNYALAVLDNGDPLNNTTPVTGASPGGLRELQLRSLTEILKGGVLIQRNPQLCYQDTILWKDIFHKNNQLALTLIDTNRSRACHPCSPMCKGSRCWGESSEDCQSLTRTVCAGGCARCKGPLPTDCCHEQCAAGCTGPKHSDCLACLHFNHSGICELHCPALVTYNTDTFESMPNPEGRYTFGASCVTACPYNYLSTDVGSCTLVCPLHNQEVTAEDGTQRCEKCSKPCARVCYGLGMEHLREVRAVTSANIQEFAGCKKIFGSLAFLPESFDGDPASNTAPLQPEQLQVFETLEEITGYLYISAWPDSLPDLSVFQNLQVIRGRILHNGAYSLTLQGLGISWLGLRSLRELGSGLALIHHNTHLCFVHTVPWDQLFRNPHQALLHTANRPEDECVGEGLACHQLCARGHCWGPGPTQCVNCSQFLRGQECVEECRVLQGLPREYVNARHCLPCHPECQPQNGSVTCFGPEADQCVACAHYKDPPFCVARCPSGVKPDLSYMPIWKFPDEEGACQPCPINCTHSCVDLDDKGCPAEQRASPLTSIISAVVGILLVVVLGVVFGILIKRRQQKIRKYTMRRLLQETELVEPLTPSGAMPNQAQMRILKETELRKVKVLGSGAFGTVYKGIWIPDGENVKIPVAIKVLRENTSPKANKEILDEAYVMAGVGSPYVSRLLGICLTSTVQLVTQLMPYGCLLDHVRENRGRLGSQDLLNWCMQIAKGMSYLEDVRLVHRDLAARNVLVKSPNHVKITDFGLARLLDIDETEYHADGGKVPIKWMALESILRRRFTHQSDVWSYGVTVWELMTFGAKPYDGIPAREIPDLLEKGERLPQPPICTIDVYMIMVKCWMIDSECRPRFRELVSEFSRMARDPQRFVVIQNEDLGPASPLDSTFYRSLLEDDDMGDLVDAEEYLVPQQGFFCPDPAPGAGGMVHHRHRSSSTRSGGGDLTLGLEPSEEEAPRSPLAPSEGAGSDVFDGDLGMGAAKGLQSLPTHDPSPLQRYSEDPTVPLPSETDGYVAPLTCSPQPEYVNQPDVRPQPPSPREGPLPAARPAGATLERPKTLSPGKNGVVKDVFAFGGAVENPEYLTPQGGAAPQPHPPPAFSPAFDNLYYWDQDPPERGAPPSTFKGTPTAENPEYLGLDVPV
Chain of ErbB2 insYVMA (HER2-YVMA, SEQ ID NO: 2) (P04626 with tags, fused parts or gaps INS775YVMA/P1170A limits assumed): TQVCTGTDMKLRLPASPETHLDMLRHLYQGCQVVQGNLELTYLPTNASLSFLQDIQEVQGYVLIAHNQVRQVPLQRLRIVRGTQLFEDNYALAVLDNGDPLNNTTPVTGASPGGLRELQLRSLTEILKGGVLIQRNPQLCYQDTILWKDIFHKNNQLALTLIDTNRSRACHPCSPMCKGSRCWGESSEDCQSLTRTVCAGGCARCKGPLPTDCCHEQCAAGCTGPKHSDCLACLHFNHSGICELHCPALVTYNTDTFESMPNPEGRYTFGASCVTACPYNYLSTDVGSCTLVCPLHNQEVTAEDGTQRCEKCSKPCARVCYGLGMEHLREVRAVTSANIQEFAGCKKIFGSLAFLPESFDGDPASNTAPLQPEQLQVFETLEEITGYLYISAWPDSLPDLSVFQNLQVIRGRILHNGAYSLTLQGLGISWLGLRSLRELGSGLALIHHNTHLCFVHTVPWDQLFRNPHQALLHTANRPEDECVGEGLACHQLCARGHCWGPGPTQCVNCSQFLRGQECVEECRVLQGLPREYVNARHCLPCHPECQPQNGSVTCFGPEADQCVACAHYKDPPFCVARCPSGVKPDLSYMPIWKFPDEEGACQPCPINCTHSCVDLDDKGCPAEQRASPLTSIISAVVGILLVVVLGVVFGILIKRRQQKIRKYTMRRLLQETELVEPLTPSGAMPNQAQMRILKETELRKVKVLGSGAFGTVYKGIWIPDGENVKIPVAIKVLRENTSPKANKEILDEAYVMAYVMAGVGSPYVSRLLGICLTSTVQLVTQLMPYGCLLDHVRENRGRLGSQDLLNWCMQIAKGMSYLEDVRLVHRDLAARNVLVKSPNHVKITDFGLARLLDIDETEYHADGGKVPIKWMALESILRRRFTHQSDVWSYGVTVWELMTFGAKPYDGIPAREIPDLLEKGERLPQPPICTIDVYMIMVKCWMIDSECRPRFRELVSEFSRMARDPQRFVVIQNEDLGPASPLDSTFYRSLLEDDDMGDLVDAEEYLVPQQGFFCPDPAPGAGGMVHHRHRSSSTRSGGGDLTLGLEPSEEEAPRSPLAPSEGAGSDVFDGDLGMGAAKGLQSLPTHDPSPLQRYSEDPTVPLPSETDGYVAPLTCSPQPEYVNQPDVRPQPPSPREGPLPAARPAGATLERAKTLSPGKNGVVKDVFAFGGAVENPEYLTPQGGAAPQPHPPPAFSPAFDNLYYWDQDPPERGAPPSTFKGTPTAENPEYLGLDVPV

In the case of `Cc1cc(Nc2ncnc3cnc(N4CCC[C@@]45CCOC5)nc23)ccc1Oc1ccc2c(c1)ncn2C` (racemic) [Example 115, rac-(R)—N-(3-methyl-4-((1-methyl-1H-benzo[d]imidazol-5-yl)oxy)phenyl)-6-(7-oxa-1-azaspiro[4.4]nonan-1-yl)pyrimido[5,4-d]pyrimidin-4-amine], the IC50 is 52.4 nM in test [1] (read-out: Assay 1 IC50); 56.7 nM in test [2]; 2190 nM in test [3]; at least 5000 nM in test [4]; 15.6 nM in test [5].
The like results for `Cc1cc(Nc2ncnc3cnc(N4CC[C@]45CCOC5)nc23)ccc1Oc1ccc2c(c1)ncn2C` (single isomer, unassigned) [Example 93b] were, in that order, 16.2 nM, 11.6 nM, 1350 nM, at least 5000 nM and 13.9 nM.
As for `CCOc1ncc2ncnc(Nc3ccc(Oc4ccc5c(c4)ncn5C)c(C)c3)c2n1` [Example 13, 6-ethoxy-N-(3-methyl-4-((1-methyl-1H-benzo[d]imidazol-5-yl)oxy)phenyl)pyrimido[5,4-d]pyrimidin-4-amine], the IC50 in test [1] (read-out: Assay 1 IC50) was 35.1 nM; in test [3], at least 10000 nM; in test [4], at least 5000 nM; in test [5], 295 nM.
Turning to `Cc1cc(Nc2ncnc3cnc(N4CCC5(CCOC5)C4)nc23)ccc1Oc1ccc2c(c1)ncn2C` (centres unmarked) [Example 15, N-(3-methyl-4-((1-methyl-1H-benzo[d]imidazol-5-yl)oxy)phenyl)-6-(2-oxa-7-azaspiro[4.4]nonan-7-yl)pyrimido[5,4-d]pyrimidin-4-amine], the IC50 is 21.4 nM in test [1] (read-out: Assay 1 IC50); 51.1 nM in test [2]; at least 10000 nM in test [3]; at least 5000 nM in test [4]; 23.4 nM in test [5].
On to `Cc1cc(Nc2ncnc3cnc(N4C[C@H]5CC[C@@H]4CO5)nc23)ccc1Oc1ccn2ncnc2c1` [Example 127, N-(4-([1,2,4]triazolo[1,5-a]pyridin-7-yloxy)-3-methylphenyl)-6-((1R,4R)-2-oxa-5-azabicyclo[2.2.2]octan-5-yl)pyrimido[5,4-d]pyrimidin-4-amine], for which the IC50 in test [1] (read-out: Assay 1 IC50) was 40.7 nM; in test [3] it was at least 10000 nM; in test [4], at least 5000 nM; in test [5], 151 nM.
As to `Cc1cc(Nc2ncnc3cnc(N4CCC(S(C)(=O)=O)CC4)nc23)ccc1Oc1ccc2c(c1)ncn2C` [Example 224], the figures for the IC50 in test [3] and in test [4] were at least 10000 nM and at least 5000 nM, respectively.
Regarding `Cc1cc(Nc2ncnc3cnc(O[C@@H]4CNC[C@@H]4F)nc23)ccc1Oc1ccc2c(c1)ncn2C` [Example 283], the IC50 in test [1] (read-out: Assay 1 IC50) is 39.5 nM; in test [2] it was 301 nM; in test [3] it was at least 10000 nM; in test [5], 261 nM.
As for `Cc1cc(Nc2ncnc3cnc(N4CC[C@](C)(O)C4)nc23)ccc1Oc1ccc2c(c1)ncn2C` [Example 294], the IC50 in test [4] was at least 5000 nM.
Still for that read-out and setting: the figure for `Cc1c(Oc2ccc3c(c2)ncn3C)ccc(Nc2ncnc3cnc(N4CC[C@](C)(O)C4)nc23)c1F` [Example 310] is at least 5000 nM.
For `Cc1c(Oc2ccn3ncnc3c2)ccc(Nc2ncnc3cnc(N4C[C@@H]5C[C@H]4CO5)nc23)c1F` [Example 313], the values for the IC50 in test [3], in test [4] and in test [5] were 4150 nM, at least 5000 nM and 1760 nM, respectively.
As to `Cc1cc(Nc2ncnc3cnc(N4CC(C(C)(C)O)C4)nc23)ccc1Oc1ccn2ncnc2c1` [Example 343], the IC50 in test [1] (read-out: Assay 1 IC50) is 113 nM; in test [2], 120 nM; in test [4], at least 5000 nM; in test [5], 1490 nM.
Consider `Cc1cc(Nc2ncnc3cnc(N4CCO[C@]5(CCOC5)C4)nc23)ccc1Oc1ccc2c(c1)ncn2C` [Example 357], for which the IC50 was at least 10000 nM in test [3] and at least 5000 nM in test [4].
Consider `Cc1cc(Nc2ncnc3cnc(N4CC[C@H]4C(F)F)nc23)ccc1Oc1ccc2c(c1)ncn2C` [Example 388], for which the IC50 is 62.1 nM in test [1] (read-out: Assay 1 IC50), 89.4 nM in test [2], at least 10000 nM in test [3] and 52.2 nM in test [5].
For `Cc1cc(Nc2ncnc3cnc(N4CC[C@@H]4C(C)(C)O)nc23)ccc1Oc1ccc2c(c1)ncn2C` [Example 397], in that order: 20.3 nM, 144 nM, at least 10000 nM and 115 nM.
The like results for `Cc1cc(Nc2ncnc3cnc(N4CC[C@H]4C(C)(C)O)nc23)ccc1Oc1ccc2c(c1)ncn2C` [Example 407] were, in that order, 31.5 nM, 117 nM, at least 10000 nM and 84.1 nM.
The like results for `Cc1cc(Nc2ncnc3cnc(N4CCC5(COC5)C4)nc23)ccc1Oc1ccc2c(c1)ncn2C` [Example 422] were, in that order, 58.4 nM, 93.2 nM, at least 10000 nM and 96.7 nM.
On to `Cc1cc(Nc2ncnc3cnc(N4CCCCS4(=O)=O)nc23)ccc1Oc1ccc2c(c1)ncn2C` [Example 437], for which the IC50 in test [1] (read-out: Assay 1 IC50) is 40.8 nM; in test [2], 146 nM; in test [3] it was at least 10000 nM; in test [5], 95.8 nM.
Consider `C[C@@H]1CN(c2ncc3ncnc(Nc4ccc(Oc5ccc6c(c5)ncn6C)c(Cl)c4)c3n2)CCN1C` [Example 439], for which the IC50 is 38.7 nM in test [1] (Assay 1 IC50 (nM)), 70 nM in test [2], at least 5000 nM in test [4] and 45.3 nM in test [5].
In the case of `Cc1c(Oc2ccc3c(c2)ncn3C)ccc(Nc2ncnc3cnc(N4CC5CC4CO5)nc23)c1F` (centres unmarked) [Example 454], the IC50 came to 15.3 nM in test [1] (read-out: Assay 1 IC50), 48.1 nM in test [2], 4110 nM in test [3] and 54.7 nM in test [5].
For the molecule `Cc1cc(Nc2ncnc3cnc(N4CCC5COCC54)nc23)ccc1Oc1ccc2c(c1)ncn2C` (centres unmarked) [Example 472], the IC50 in test [4] is at least 5000 nM.
Turning to `Cc1cc(Nc2ncnc3cnc(N(C)[C@@H]4CCCOC4)nc23)ccc1Oc1ccc2c(c1)ncn2C` [Example 473], the IC50 in test [3] was 1530 nM; in test [4] it was at least 5000 nM; in test [5] it was 5.8 nM.
For the molecule `Cc1cc(Nc2ncnc3cnc(N4CC[Si](C)(C)CC4)nc23)ccc1Oc1ccc2c(c1)ncn2C` [Example 474], the IC50 in test [1] (Assay 1 IC50 (nM)) was 254 nM; in test [2], 727 nM; in test [3], at least 10000 nM; in test [5], 559 nM.
On to `Cc1cc(Nc2ncnc3cnc(OCC(C)(C)O)nc23)ccc1Oc1ccc2c(c1)ncn2C` [Example 476], for which the IC50 in test [1] (read-out: Assay 1 IC50) is 39.5 nM; in test [2], 232 nM; in test [3] it was at least 10000 nM; in test [5], 155 nM.

For orientation: IC50 means the concentration that inhibits the measured activity by half.
